Test results taken from ChEMBL document CHEMBL1132177, “PTP1B inhibition and antihyperglycemic activity in the ob/ob mouse model of novel 11-arylbenzo[b]naphtho[2,3-d]furans and 11-arylbenzo[b]naphtho[2,3-d]thiophenes” (J Med Chem, 1999).
Values belong to the compound of their own block, whether it stands above or below them.

How the values were obtained:
[1] = target: T1, Tyrosine-protein phosphatase non-receptor type 1 (Homo sapiens, UniProt P18031); test: The compound was tested in vitro for the inhibitory activity against Protein-tyrosine phosphatase 1B (human PTPases.)
T1 sequence (P18031 whole entry): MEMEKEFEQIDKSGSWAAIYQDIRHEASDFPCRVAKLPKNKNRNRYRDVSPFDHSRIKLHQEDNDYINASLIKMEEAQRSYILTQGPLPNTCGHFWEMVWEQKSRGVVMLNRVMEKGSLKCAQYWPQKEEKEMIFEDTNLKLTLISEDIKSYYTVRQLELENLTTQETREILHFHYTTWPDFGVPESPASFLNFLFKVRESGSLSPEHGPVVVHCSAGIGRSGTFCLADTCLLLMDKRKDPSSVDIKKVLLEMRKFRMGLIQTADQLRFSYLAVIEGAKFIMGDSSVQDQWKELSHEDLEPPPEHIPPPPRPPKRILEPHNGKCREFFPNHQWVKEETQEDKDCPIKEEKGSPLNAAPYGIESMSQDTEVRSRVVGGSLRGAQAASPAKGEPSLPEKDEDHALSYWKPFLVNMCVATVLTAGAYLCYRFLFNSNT

[2] = tested on: Mus musculus; test: The compound was tested in vivo(ob/ob mouse) for intestinal absorption against insulin, at a concentration of 100 mg/kg/day.; assay type: functional
[3] = target: Dual specificity protein phosphatase 3 (Homo sapiens, UniProt P51452); test: The compound was tested in vitro for the inhibitory activity against Dual specificity protein phosphatase 3 (SH-PTP1) (human PTPases.)
[4] = target: T2, Tyrosine-protein phosphatase non-receptor type 12 (Homo sapiens, UniProt Q05209); test: The compound was tested in vitro for the inhibitory activity against Protein tyrosine phosphatase PEST (SH-PTP1) (human PTPases.)
T2 sequence (Q05209 whole entry): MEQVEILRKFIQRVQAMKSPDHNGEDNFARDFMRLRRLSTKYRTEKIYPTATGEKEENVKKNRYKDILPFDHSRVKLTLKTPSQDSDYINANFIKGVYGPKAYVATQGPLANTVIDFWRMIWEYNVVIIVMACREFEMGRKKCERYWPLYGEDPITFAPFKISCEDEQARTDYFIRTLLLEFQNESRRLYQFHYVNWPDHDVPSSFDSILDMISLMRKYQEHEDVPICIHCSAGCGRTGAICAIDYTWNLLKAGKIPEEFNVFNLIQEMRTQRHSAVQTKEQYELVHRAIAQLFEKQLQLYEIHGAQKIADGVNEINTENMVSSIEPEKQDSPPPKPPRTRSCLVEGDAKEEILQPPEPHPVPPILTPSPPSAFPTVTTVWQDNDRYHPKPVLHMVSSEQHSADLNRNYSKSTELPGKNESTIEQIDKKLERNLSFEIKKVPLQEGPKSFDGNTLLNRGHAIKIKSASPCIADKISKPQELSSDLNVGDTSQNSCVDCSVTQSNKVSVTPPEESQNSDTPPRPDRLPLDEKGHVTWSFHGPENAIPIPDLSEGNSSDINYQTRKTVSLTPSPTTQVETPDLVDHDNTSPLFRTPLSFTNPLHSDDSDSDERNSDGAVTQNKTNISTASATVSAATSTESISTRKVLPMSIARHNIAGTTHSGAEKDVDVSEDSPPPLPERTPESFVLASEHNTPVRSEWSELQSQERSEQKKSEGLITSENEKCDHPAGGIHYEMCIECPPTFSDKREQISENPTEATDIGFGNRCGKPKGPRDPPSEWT

[5] = tested on: Mus musculus; test: The compound was tested in vivo(ob/ob mouse) for intestinal absorption against plasma glucose at a concentration of 100 mg/kg/day.; assay type: functional
[6] = target: Receptor-type tyrosine-protein phosphatase alpha (Homo sapiens, UniProt P18433); test: The compound was tested in vitro for the inhibitory activity against Protein-tyrosine phosphatase 1 alpha (LRP) (human PTPases.)
[7] = target: Tyrosine-protein phosphatase non-receptor type 6 (Homo sapiens, UniProt P29350); test: The compound was tested in vitro for the inhibitory activity against Protein-tyrosine phosphatase 1C (SH-PTP1) (human PTPases.)
[8] = The compound was tested in vitro for the inhibitory activity against human HePTP360 (Hematopoietic protein tyrosine phosphatase)
[9] = target: T3, Receptor-type tyrosine-protein phosphatase C (Homo sapiens, UniProt P08575); test: The compound was tested in vitro for the inhibitory activity against CD45 antigen (human PTPases.)
T3 sequence (P08575 whole entry): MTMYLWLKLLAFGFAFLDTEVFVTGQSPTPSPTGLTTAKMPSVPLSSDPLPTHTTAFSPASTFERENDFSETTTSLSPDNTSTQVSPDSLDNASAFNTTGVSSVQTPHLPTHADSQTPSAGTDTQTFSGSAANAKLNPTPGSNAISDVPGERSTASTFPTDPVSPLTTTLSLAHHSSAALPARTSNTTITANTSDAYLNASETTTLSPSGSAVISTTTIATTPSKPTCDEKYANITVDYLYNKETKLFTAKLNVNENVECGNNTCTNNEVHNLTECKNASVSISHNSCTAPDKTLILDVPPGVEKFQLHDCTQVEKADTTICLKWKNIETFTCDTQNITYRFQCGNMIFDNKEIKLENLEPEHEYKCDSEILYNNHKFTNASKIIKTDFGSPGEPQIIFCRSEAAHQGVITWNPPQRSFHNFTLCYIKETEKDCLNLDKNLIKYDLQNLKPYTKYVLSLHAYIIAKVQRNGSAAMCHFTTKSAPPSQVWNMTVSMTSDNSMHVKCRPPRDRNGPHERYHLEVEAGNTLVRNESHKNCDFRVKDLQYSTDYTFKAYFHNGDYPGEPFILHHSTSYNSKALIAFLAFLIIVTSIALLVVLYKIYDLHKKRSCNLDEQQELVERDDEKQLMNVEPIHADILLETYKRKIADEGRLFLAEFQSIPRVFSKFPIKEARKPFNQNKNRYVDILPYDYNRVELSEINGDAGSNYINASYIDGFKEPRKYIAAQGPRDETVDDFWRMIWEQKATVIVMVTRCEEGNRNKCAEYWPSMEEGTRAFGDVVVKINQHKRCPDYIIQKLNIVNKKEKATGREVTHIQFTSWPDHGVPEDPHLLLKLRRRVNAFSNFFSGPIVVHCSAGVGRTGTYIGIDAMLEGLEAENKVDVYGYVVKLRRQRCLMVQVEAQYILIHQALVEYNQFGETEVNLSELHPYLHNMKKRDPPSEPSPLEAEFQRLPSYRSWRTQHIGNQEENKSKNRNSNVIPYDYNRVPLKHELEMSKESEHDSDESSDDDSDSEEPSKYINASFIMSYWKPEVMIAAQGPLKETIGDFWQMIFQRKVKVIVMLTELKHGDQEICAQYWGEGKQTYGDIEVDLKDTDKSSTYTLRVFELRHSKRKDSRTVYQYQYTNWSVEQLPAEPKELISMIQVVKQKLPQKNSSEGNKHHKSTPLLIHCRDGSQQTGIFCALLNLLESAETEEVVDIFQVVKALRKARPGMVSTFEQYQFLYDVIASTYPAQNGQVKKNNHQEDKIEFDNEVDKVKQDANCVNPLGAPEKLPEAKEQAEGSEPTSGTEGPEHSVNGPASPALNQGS

[10] = target: Receptor-type tyrosine-protein phosphatase beta (Homo sapiens, UniProt P23467); test: The compound was tested in vitro for the inhibitory activity against Protein-tyrosine phosphatase beta (SH-PTP1) (human PTPases.)
[11] = tested on: Mus musculus; test: The compound was tested in vivo(ob/ob mouse) for intestinal absorption against plasma glucose at a concentration of 75 mg/kg/day.; assay type: functional
[12] = tested on: Mus musculus; test: The compound was tested in vivo(ob/ob mouse) for intestinal absorption against plasma glucose at a concentration of 50 mg/kg/day.; assay type: functional
[13] = tested on: Mus musculus; test: The compound was tested in vivo(ob/ob mouse) for intestinal absorption against plasma glucose at a concentration of 10 mg/kg/day.; assay type: functional
[14] = tested on: Mus musculus; test: The compound was tested in vivo(ob/ob mouse) for intestinal absorption against plasma glucose at a concentration of 25 mg/kg/day.; assay type: functional
[15] = tested on: Mus musculus; test: The compound was tested in vivo(ob/ob mouse) for intestinal absorption against insulin, at a concentration of 10 mg/kg/day.; assay type: functional
[16] = tested on: Mus musculus; test: The compound was tested in vivo(ob/ob mouse) for intestinal absorption against insulin, at a concentration of 25 mg/kg/day.; assay type: functional
[17] = tested on: Mus musculus; test: The compound was tested in vivo(ob/ob mouse) for intestinal absorption against insulin, at a concentration of 75 mg/kg/day.; assay type: functional
[18] = tested on: Mus musculus; test: The compound was tested in vivo(ob/ob mouse) for intestinal absorption against insulin, at a concentration of 50 mg/kg/day.; assay type: functional
[19] = target: T1, Tyrosine-protein phosphatase non-receptor type 1; test: The compound was tested in vitro for the inhibitory activity against hPTP1B (human PTPases.)
[20] = tested on: Mus musculus; test: The compound was tested in vivo(ob/ob mouse) for intestinal absorption against insulin, at a concentration of 5 mg/kg/day.; assay type: functional
[21] = tested on: Mus musculus; test: The compound was tested in vivo(ob/ob mouse) for intestinal absorption against plasma glucose at a concentration of 5 mg/kg/day.; assay type: functional
[22] = tested on: Mus musculus; test: The compound was tested in vivo(ob/ob mouse) for intestinal absorption against plasma glucose at a concentration of 1 mg/kg/day. (i.p.); assay type: functional; details: route intraperitoneal
[23] = tested on: Mus musculus; test: The compound was tested in vivo(ob/ob mouse) for intestinal absorption against insulin, at a concentration of 200 mg/kg/day.; assay type: functional
[24] = tested on: Mus musculus; test: The compound was tested in vivo(ob/ob mouse) for intestinal absorption against plasma glucose at a concentration of 200 mg/kg/day.; assay type: functional
[25] = target: T1, Tyrosine-protein phosphatase non-receptor type 1; test: The compound was tested for inhibitory activity against recombinant Protein-tyrosine phosphatase 1B (human).
[26] = tested on: Mus musculus; test: The compound was tested in vivo(ob/ob mouse) for intestinal absorption against plasma glucose at a concentration of 90 mg/kg/day.; assay type: functional
[27] = tested on: Mus musculus; test: The compound was tested in vivo(ob/ob mouse) for intestinal absorption against insulin, at a concentration of 90 mg/kg/day.; assay type: functional

Chain of Receptor-type tyrosine-protein phosphatase beta (P23467 whole entry): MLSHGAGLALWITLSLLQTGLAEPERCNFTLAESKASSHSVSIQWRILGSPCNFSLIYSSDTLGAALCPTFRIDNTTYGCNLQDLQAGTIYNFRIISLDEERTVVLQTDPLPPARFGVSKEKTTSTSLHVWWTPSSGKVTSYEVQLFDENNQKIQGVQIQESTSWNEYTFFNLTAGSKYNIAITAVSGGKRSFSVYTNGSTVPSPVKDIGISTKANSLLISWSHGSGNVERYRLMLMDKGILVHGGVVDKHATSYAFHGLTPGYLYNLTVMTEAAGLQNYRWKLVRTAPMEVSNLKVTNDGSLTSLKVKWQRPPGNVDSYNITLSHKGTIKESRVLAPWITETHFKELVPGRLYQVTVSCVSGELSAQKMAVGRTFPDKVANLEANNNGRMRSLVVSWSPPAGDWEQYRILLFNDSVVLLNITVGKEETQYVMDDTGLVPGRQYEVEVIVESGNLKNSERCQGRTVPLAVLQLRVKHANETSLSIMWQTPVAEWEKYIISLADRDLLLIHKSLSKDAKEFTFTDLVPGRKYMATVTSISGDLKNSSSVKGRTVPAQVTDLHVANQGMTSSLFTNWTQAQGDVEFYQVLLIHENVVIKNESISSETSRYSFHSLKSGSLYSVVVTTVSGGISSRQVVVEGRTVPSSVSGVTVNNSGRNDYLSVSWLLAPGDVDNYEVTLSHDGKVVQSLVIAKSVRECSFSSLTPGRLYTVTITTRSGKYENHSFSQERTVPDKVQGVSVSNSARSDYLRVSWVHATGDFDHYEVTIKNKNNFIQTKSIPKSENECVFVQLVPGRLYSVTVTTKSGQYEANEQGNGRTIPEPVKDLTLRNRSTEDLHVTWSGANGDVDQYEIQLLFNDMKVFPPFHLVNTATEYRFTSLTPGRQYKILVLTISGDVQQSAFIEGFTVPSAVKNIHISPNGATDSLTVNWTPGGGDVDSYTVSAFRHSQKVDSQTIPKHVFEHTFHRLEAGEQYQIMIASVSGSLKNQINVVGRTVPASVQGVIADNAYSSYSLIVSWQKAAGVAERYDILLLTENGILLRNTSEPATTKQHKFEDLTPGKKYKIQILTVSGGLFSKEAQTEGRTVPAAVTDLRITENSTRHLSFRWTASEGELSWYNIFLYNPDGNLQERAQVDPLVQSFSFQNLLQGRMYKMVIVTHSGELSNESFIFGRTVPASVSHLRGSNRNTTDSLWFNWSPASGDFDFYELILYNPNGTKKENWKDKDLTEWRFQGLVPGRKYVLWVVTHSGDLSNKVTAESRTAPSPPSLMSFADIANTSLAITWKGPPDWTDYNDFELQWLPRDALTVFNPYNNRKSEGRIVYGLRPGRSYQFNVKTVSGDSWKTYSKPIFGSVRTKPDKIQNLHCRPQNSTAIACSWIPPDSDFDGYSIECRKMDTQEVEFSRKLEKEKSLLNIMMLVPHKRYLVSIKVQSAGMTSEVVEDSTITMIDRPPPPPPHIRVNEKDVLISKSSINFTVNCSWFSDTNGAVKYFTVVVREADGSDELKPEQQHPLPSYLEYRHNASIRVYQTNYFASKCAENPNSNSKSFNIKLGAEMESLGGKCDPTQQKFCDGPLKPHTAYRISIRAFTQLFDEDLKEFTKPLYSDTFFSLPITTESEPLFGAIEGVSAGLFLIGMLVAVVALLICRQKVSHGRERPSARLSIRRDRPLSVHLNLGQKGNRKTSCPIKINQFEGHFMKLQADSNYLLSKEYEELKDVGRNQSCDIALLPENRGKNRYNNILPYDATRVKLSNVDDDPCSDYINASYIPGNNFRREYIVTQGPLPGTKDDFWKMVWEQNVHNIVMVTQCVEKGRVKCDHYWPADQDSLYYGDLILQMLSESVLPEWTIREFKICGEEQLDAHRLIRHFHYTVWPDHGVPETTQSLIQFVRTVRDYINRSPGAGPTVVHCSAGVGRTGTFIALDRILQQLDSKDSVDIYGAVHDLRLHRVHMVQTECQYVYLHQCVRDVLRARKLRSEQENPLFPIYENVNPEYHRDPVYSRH
Chain of Dual specificity protein phosphatase 3 (P51452 whole entry): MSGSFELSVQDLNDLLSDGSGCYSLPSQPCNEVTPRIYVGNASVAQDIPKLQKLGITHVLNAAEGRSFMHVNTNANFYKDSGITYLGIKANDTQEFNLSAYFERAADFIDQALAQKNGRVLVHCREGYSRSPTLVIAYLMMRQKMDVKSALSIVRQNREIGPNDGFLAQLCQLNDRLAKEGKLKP
Chain of Receptor-type tyrosine-protein phosphatase alpha (P18433 whole entry): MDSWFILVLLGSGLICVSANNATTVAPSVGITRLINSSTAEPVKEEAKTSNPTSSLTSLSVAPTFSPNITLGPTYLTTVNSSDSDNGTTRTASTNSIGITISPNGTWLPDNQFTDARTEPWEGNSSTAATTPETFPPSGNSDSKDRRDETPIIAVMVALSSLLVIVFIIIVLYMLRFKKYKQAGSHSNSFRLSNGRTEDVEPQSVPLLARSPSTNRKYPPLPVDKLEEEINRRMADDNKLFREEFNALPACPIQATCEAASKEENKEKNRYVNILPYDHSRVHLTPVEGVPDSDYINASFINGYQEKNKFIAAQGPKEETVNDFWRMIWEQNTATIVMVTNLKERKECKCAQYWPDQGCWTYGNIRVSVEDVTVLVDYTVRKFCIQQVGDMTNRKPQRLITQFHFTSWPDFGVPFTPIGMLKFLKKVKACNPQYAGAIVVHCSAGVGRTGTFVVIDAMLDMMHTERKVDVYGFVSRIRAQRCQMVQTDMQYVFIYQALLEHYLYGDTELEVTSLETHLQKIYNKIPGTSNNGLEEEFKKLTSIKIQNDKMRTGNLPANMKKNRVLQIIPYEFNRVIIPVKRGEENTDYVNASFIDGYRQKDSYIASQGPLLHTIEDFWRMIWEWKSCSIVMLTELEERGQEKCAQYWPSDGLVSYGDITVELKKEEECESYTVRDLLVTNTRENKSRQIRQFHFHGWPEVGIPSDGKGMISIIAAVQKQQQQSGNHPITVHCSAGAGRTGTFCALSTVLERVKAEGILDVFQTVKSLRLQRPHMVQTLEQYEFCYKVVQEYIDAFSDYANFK
Chain of Tyrosine-protein phosphatase non-receptor type 6 (P29350 whole entry): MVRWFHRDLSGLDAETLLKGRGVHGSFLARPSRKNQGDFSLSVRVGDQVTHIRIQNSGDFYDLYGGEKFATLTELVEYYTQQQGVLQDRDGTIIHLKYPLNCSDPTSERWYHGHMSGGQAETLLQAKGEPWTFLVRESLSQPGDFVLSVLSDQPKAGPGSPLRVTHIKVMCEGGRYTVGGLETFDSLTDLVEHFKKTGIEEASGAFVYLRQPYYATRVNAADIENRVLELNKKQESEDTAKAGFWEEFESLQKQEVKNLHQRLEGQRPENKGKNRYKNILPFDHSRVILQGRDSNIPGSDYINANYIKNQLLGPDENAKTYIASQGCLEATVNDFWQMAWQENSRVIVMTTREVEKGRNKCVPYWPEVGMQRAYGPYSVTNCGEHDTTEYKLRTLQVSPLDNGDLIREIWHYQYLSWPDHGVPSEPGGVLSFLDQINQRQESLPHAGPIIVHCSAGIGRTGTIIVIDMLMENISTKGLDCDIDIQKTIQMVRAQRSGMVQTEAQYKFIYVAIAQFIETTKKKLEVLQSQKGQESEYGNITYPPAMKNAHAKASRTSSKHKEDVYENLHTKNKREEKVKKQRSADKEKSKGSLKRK

IC50 [1]: 390 nM
IC50 [3]: 7900 nM
IC50 [4]: 2300 nM
IC50 [6]: 17000 nM
IC50 [7]: 5000 nM
IC50 [8]: 2700 nM
IC50 [9]: 9100 nM
IC50 [10]: 600 nM
SMILES: O=C(O)COc1c(Br)cc(-c2c3ccccc3c(Br)c3sc4ccccc4c23)cc1Br
Decrease [2]: 61%
Decrease [5]: 23%

SMILES: O=C(O)[C@@H](Cc1ccccc1)Oc1c(Br)cc(-c2c3ccccc3c(Br)c3sc4ccccc4c23)cc1Br
Decrease [11]: 50%
Decrease [12]: 35%
Decrease [13]: 26%
Decrease [14]: 26%
Decrease [15]: <15%
Decrease [16]: 72%
Decrease [17]: 85%
Decrease [18]: 71%

SMILES: Oc1c(Br)cc(-c2c3ccccc3c(Br)c3sc4ccccc4c23)cc1Br
Decrease [2]: <15%
Decrease [5]: <15%

IC50 [19]: 80 nM
IC50 [3]: 11000 nM
IC50 [4]: 2200 nM
IC50 [6]: 13000 nM
IC50 [7]: 9000 nM
IC50 [8]: 2100 nM
IC50 [9]: 6300 nM
IC50 [10]: 500 nM
SMILES: O=C(O)[C@@H](Cc1ccccc1)Oc1c(Br)cc(-c2c3ccccc3c(Br)c3oc4ccccc4c23)cc1Br
Decrease [20]: 56%
Decrease [13]: 29%
Decrease [14]: 42%
Decrease [21]: <15%
Decrease [15]: 69%
Decrease [16]: 86%
Decrease [22]: 38%

SMILES: CC1(COc2ccc(CC3SC(=O)NC3=O)cc2)CCCCC1 (centres undefined) [CIGLITAZONE]
inhibition in vivo at 100 mg/kg/day [2]: 39%
inhibition in vivo at 100 mg/kg/day [5]: 43%

SMILES: Cc1c(C)c2c(c(C)c1O)CCC(C)(COc1ccc(CC3SC(=O)NC3=O)cc1)O2 (centres undefined) [TROGLITAZONE]
inhibition in vivo at 200 mg/kg/day [23]: < 15%
inhibition in vivo at 200 mg/kg/day [24]: 34%

IC50 [25]: 11 nM
SMILES: O=C(O)[C@@H](CCN1C(=O)c2ccccc2C1=O)Oc1c(Br)cc(-c2c3ccccc3c(Br)c3sc4ccccc4c23)cc1Br
inhibition in vivo at 100 mg/kg/day [2]: < 15%
inhibition in vivo at 100 mg/kg/day [5]: < 15%

SMILES: O=P(O)(O)COc1c(Br)cc(-c2c3ccccc3c(Br)c3sc4ccccc4c23)cc1Br
Decrease [26]: <15%
Decrease [27]: <15%
